We go through two molecules from patent US20190086390A1, “INDIRECT ASSESSMENT OF INSULIN RELEASE IN A CELL” (Board of Supervisors of Louisiana State University and …, priority 2016, published 2019).

For experiment [1], the system named is 832/13 cells. In words: Glucose-stimulated insulin secretion (GSIS) in 832/13 cells, insulin ELISA. Format: cell-based, rat. On the procedure: 832/13 cells were grown in 12-well plates and treated as indicated. Glucose-stimulated insulin secretion (GSIS) assays were performed as described previously (29). Insulin secretion by cell lines into the media was measured using either the High Range Rat Insulin ELISA kit (Mercodia, Uppsala, Sweden) or by rat islets using the insulin radioimmunoassay (Siemens, Malvern, Pa.) according to the company directions. In addition, cells were lysed using M-PER lysis reagent (Thermo Fisher Scientific) to quantify total intracellular protein content via BCA assay (Thermo Fisher Scientific). Insulin secretion data were normalized to total protein to account for any differences in cell number between treatment groups. Incorporation of tritiated thymidine into DNA as a cellular index of proliferation was carried out as described (45).
A general note: In an ELISA, binding on a coated surface is turned into a signal by an enzyme label.

A further experiment has as its system CCL2. The experiment can be described thus: CCL2 secretion into media of 832/13 cells, ELISA. Format: cell-based, rat. Particulars: 1 ng/ml IL-1β + 1 mM I-NMMA, 6 h. The method, then: (§1) 832/13 cells were grown in 12-well plates and treated as indicated. RPMI was supplemented with 0.3% BSA, and media were collected at the indicated time points. In addition, the cells were lysed using M-PER lysis reagent (Thermo Fisher Scientific) to quantify total intracellular protein content. CCL2 and CCL20 secretion into the media was measured by CCL2 Quantikine ELISA kit (R & D Systems, Minneapolis, Minn.) and CCL20 DuoSet ELISA kit (R & D Systems) according to the manufacturer's protocol. ELISA data were normalized to total protein to account for any differences in cell number between treatment groups.

A further experiment relates to CCL20. In words: CCL20 secretion into media of 832/13 cells, ELISA. Format: cell-based, rat. Particulars: 1 ng/ml IL-1β + 1 mM I-NMMA, 6 h. On the procedure: as §1
Experiment [2] concerns 832/13 cells. The experiment can be described thus: Nitrite accumulation in culture media, Griess assay. In kind it is cell-based, rat. Particulars: 832/13 cells, 1 ng/ml IL-1β 18 h. On the procedure:
(§2) Nitrite in the cell culture media was measured as an index of NO production using the Griess assay kit (Promega, Madison, Wis.), whereas cellular reduction of the 3-(4,5-dimethylthiazol-2-yl)-5-(3-carboxymethoxyphenyl)-2-(4-sulfophe-nyl)-2H-tetrazohum, inner salt (MTS) dye was determined using the MTS 1 solution kit (Promega) according to the manufacturer's protocol.

Experiment [3] relates to 832/13 cells. In words: Nitric oxide by EPR spectroscopy with (MGD)2Fe2+ spin trap. Format: cell-based, rat. Particulars: 1 ng/ml IL-1β 18 h. On the procedure: The spin trap Af-methyl-d-glucamine dithiocarbamate-iron complex [(MGD)2-Fe^2+] was prepared fresh in each experiment by making stock solutions of 500 mM MGD and 100 mM Fe^2+ (from FeS04.7 H20) in ultrapure water under anaerobic conditions. A final concentration of 25 mM MGD and 5 mM Fe^2+ was introduced onto cells in culture using serum-free media with a 30-min incubation period. Supernatants were then collected for the measurements of the (MGD)2-iron-NO complex. All electron paramagnetic resonance (EPR) measurements were carried out in a quartz flat cell at room temperature. Samples were transferred directly into the flat cell, which was then placed into the cavity of a Bruker EMX Plus spectroscope. Typical instrumental conditions were as follows: 20 mW of microwave power, 5.0-G modulation amplitude, 1×10^5 gain, 0.163-s time constant, and 80-G scan range. Quantitation was carried out by measuring and comparing the first peak heights on the spectra.

In experiment [4] the test system is 832/13 cells. The experiment can be described thus: MTS dye reduction assay. Format: cell-based, rat. The note with it: 1 ng/ml IL-1β + 1 mM I-NMMA, 18 h. The method, then:
as §2
(Tetrazolium assays rely on reduction of a dye to a coloured formazan, in cell work by metabolically active cells.)

The test system of experiment [5] is 832/13 cells. In words: Oxygen consumption rate (Seahorse XF24). In kind it is cell-based, rat. Particulars: 1 ng/ml IL-1β + 1 mM I-NMMA, 18 h. The method, then:
Oxygen consumption rates (OCR) were measured using the XF^24 Extracellular Flux Analyzer (Seahorse Bioscience, Chicopee, Mass.). 832/13 cells were grown on cell culture plates for 2 days prior to OCR assays being run. Cells were treated with vehicle, 1 ng/ml IL-β, 1 mM I-NMMA, or both IL-1β (1 ng/ml) plus I-NMMA (1 mM) for 18 h prior to OCR being measured. The oxygen consumption rate was measured over a 2-h period. Data represent the calculated average area under the curve from six wells per treatment group over multiple independent experiments.

The test system of experiment [6] is 832/13 cells. In words: Live cell calcium imaging, glucose-induced calcium response (Calcium Green). In kind it is cell-based, rat. The method, then:
832/13 cells were plated into six-well plates containing poly-d-lysine-coated coverslips (Neuvitro, Vancouver, Wash.). At 50% confluence, cells were treated for 18 h with one of four experimental groups: 1 ng/ml […] alone, 1 mM I-NMMA alone, IL-1β+ I-NMMA, or normal growth media. Immediately prior to imaging, cells were preloaded with Calcium Green 1 AM (CG, C3012; Life Technologies) by transferring coverslips to a solution of 10|×M CG in 20% Pluronic F127 in DMSO (Life Technologies) made up in carbogenated (95% 02-5% C02) normal Krebs. The recipe for normal Krebs solution was (in mM) 124 NaCl, 25 NaHC03, 2 glucose, 3 KC1, 2 CaCl2, 1.5 NaH2P04, and 1 MgS04-7H20, which corrected to pH 7.4 with HCl. After incubation in the CG solution for 30 min, coverslips were transferred to carbogenated normal Krebs at 29° C.
Coverslips were transferred to a recording chamber on a fixed stage Zeiss Axioskop2 microscope equipped with a Perkin Elmer Ultra-view/Yokogawa C10 spinning disk laser confocal illuminator. Cells were illuminated with the 488 nm laser; CG-calcium fluorescence signals were collected at 509 nm. Cells were visualized with a X40 water immersion objective. Images were collected with a Hammamatsu Ocra-ER charge-coupled device camera. The confocal system, including image collection, was controlled by Perkin-Elmer Improvision software.
Cells on coverslips were constantly perfused with normal Krebs solution at 29° C. at a rate of 3 ml/min. After 10 min, the perfusion solution was switched to one containing 12 mM glucose and proportionally less sodium chloride to maintain osmolality. The 12 mM glucose challenge was applied for 5 min, followed by a 5 min washout period. Images of CG-labeled cells were collected continuously during the challenge period at a rate of 20/min, with each frame taking 1 s. Images were collected as TIFF stacks and processed using Nikon Elements AR software. Individual cells in the field were designated as regions of interest (ROI), and their fluorescence signal over time was captured. Background fluorescence was subtracted from the fluorescence signal of individual ROIs. The relative changes in cytoplasmic calcium in the cells were expressed as changes in fluorescence [(AF/F) %], where F is the intensity of the baseline fluorescence signal before stimulation and AF is the difference between the peak fluorescence intensity and the baseline signal. Therefore, magnitude of response was normalized for each individual ROI.

Experiment [7] relates to islets isolated from ZDF rats. The note with it: islets from ZDF rats and clonal cells cultured in lipids; cited from earlier work.
The mark [8] stands for this setting: pretreated 18 h with I-NMMA plus IL-1β, 12 mM glucose.

Entries after “also recorded” stand apart in the source; their conditions may differ.

Consider `CNC(=N)NCCC[C@H](N)C(=O)O` [I-NMMA, N^G-monomethyl-L-arginine, reference compound], for which the “recovery of insulin secretion” value in the experiment with 832/13 cells [1] (IL-1β 1 ng/ml + I-NMMA 1 mM, 18 h) was “almost complete recovery”. Further, the “IL-1β-induced synthesis and secretion of CCL2 with NOS inhibitor” value with CCL2 is on record as “not altered”. The “IL-1β-induced CCL20 secretion with NOS inhibitor” value with CCL20 is listed as “not impacted”. Also, the “IL-1β-induced nitrite production in presence of inhibitor” value in the experiment on 832/13 cells [2] is “completely inhibited”. Moreover, the “IL-1β-induced nitric oxide production in presence of inhibitor” value with 832/13 cells [3] is on record as “lack of IL-Iβ-mediated elevations in nitric oxide formation”. Besides, in the experiment on 832/13 cells [4], the “IL-1β-induced decrease in MTS reduction with NOS inhibitor” value was “fully recovered”. Further, in the experiment on 832/13 cells [5], the “IL-1β-induced decrease in oxygen consumption rate with NOS inhibitor” value is listed as “prevented”. For the same molecule, the “IL-1β-reduced change in intracellular calcium with NOS inhibitor” value with 832/13 cells [6] (1 mM I-NMMA) is listed as “completely prevented”. For the same molecule, in the experiment with 832/13 cells [6] (setting [8]), the “magnitude of the response” value was 30% and the “number of responsive cells” value is recorded as 89%. Also, the “responders and response magnitude relative to control pretreatment” value in the experiment with 832/13 cells [6] (pretreated with I-NMMA alone) is “differed neither in the number of responders nor in the magnitude of the responses”.

As for `COC(=O)CC(O)C(=O)OC` (stereo not shown) [dimethyl malate, reference compound], the “recovery of insulin secretion” value in the experiment with 832/13 cells [1] (IL-1β 18 h, 10 uM DMM during final 2 h) is recorded as “could be recovered; also recorded: enhanced insulin secretion”. Besides, the insulin secretion result in experiment [7] is given as “improves insulin secretion”.
